Assay: gradient 5% acetonitrile 3 min, to 50% in 2 min, to 85% in 15 min, held 3 min, 100 µL/min
Conditions: column: Zorbax Extend-C18 2.1 x 50 mm; eluents: water / acetonitrile, 0.1% formic acid
Method in brief: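 Mixtures of ~100 pure standards were chromatographed on a Zorbax Extend-C18 column (2.1 × 50 mm, 1.8 μm) at 100 μL/min using water and acetonitrile, each with 0.1% formic acid. Detection used a quadrupole time-of-flight mass spectrometer in positive and negative ionization mode, and data collection spanned 3 months. Retention time was obtained from adduct peaks picked computationally and each checked manually.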

RP-LC retention time	SMILES
637 s	O=C(CN1CCC2(CC1)NC(=O)c1ccccc1N2)Nc1ccc(Cl)cc1
676 s	CCn1cc(CN2C[C@@H](COC)[C@H](c3nc(C)no3)C2)c2ccccc21
715 s	Cc1ccc(-c2nc3ccc(C)cn3c2Nc2ccc3c(c2)OCCO3)cc1
996 s	Cc1cc(F)ccc1NC(=O)Cn1c(=O)cc(-c2nc(C(C)C)no2)c2ccccc21
729 s	COc1ccc(NC(=O)NCCc2ccsc2)cc1
637 s	CCOc1ccc(NC(=O)CN2CCc3c(c(=O)c4cc(C)ccc4n3C)C2)cc1
888 s	CC(C)NC(=O)c1ccc(OCC2CCN(C(=O)c3ccc(F)cc3Cl)CC2)cc1
650 s	O=C(CCn1c(=O)oc2ccccc21)Nc1ccc(S(=O)(=O)Nc2nccs2)cc1
604 s	O=C(NC1CCN(Cc2ccccc2)CC1)C1CCCN(c2ncnc3c2oc2ccccc23)C1 (stereo not given)
983 s	Cc1ccc(-n2nc(CO)c(C(=O)NC(C)C)n2)cc1C
644 s	CCOC(=O)c1cccc(NC(=O)N2CCN(c3nc4ccccc4n3C)CC2)c1
873 s	COc1cccc(Cn2nc3n(CCC(=O)NC4CCCC4)c(=O)c4ccccc4n3c2=O)c1
649 s	CN1C(=O)[C@H]2CN(Cc3cccc(Cl)c3F)C[C@H]2C1=O
951 s	O=C(Nc1cc(-c2ccsc2)no1)c1cccc(F)c1
860 s	CC(C)c1nc2c(NC(=O)c3ccccc3)cccn2n1
720 s	CCCC(=O)N1CCc2c([nH]c3ccccc23)C1c1ccc(OC)cc1 (stereo not given)
748 s	O=C(Cn1ccc2ccccc21)Nc1nccs1
874 s	CCOC(=O)c1nn(-c2ccccc2C)c(=O)cc1NCc1ccc2c(c1)OCO2
716 s	O=S(=O)(c1ccccc1F)N1CCC(Nc2cccnc2)C1 (stereo not given)
604 s	CC(C)CNC(=O)N1CCn2nnc(CCC(=O)N3CCOCC3)c2C1
615 s	O=C(NCCc1c[nH]c2ccccc12)C1CCN(c2nc3ccccc3[nH]2)CC1
921 s	O=C(Nc1cccc(C(F)(F)F)c1)Nc1cnn(-c2ncc(N3CCCC3)cn2)c1
845 s	COc1ccc(Br)cc1CNC(=O)Cn1cnc2nc3c(cc2c1=O)CC(C)CC3 (stereo not given)

RP-LC retention time	SMILES
628 s	Cc1ccnc(N2CCC(C(=O)NC3CCCC3)CC2)n1
781 s	CSc1ccc(-c2nc3ccccn3c2Nc2ccc(C)cc2)cc1
868 s	COc1cc(NS(=O)(=O)c2ccc3c(c2)C(=O)N(C)c2ncccc2O3)cc(OC)c1
678 s	CC(NC(=O)Cn1cnc(-c2noc(-c3ccncc3)n2)c1)c1ccccc1 (stereo not given)
701 s	O=S(=O)(Cc1ccccc1)N1CCCCC1c1nc(-c2cccnc2)n[nH]1 (stereo not given)
759 s	CCN(CC)C(=O)C1CCN(S(=O)(=O)Cc2ccccc2)CC1
773 s	Cc1ccc(NS(=O)(=O)c2cc(-c3[nH]ncc3C(=O)N3CCCCC3)oc2C)cc1
1030 s	Cc1cccc(N2CCN(C(=O)C3CCN(c4ncnc5c4oc4ccccc45)CC3)CC2)c1C
982 s	Cc1ccc(-c2csc(-n3nc(C)c(CC(=O)Nc4cc(Cl)ccc4C)c3C)n2)cc1
568 s	Cc1ccc(Nc2ccc(NC(=O)c3ccccc3F)cc2)nn1
672 s	CC1CCCCN1CCNC(=O)c1cc2c(s1)N(C)CCCC2 (stereo not given)
768 s	COc1ccc(CCC(=O)N2CCN(S(=O)(=O)c3cc4c5c(c3)CCC(=O)N5CCC4)CC2)cc1
790 s	COc1ccc2nc(C(=O)N(C)Cc3ccccc3)cn2n1
756 s	O=C(NC1CCN(c2cc(-c3ccccc3)[nH]n2)C1)c1ccccc1F (stereo not given)
897 s	COc1ccccc1-c1nnc(-c2ccc(Cl)c(S(=O)(=O)N3CCOCC3)c2)o1
715 s	COCCN1C(=O)Cc2ccccc2C1C(=O)NCc1cccs1 (stereo not given)
975 s	CC(C)C(=O)Nc1cnc(-c2cccc(Cl)c2)nc1
826 s	CN1C(=O)c2cc(S(=O)(=O)Nc3ccc4c(c3)OCCO4)ccc2Oc2cccnc21
697 s	Cc1cccc(-c2ncccc2CNS(=O)(=O)c2ccc(C#N)cc2)c1
586 s	CN1CCC(N2CCN(c3ncccc3-c3nnc(-c4ccc(Cl)cc4)o3)CC2)CC1
652 s	O=C1CCN(C(=O)C2CCN(C(=O)C3CCCC3)CC2)CCCCCCN1
637 s	O=C(NCCCN1CCCC1=O)c1ccc(-n2nnc3cccnc32)cc1
694 s	CCn1cnnc1C1CCCCN1S(=O)(=O)c1cccs1 (stereo not given)

RP-LC retention time	SMILES
776 s	Cc1cc(C)n2nc(SCC(=O)NC3CCCC(C)C3C)nc2n1 (stereo not given)
929 s	CCN1C(=O)c2ccccc2Oc2ccc(C(=O)NC(C)Cc3ccco3)cc21 (stereo not given)
936 s	CC(C)S(=O)(=O)c1cc2c(cc1NC(=O)c1ccc(Cl)cc1)n(C)c(=O)n2C
1120 s	COc1ccc(CN2C=C(C(=O)OCc3ccccc3OC)C(C)=NS2(=O)=O)cc1
1010 s	CCOC(=O)COC(=O)c1cn(-c2cccc(OC)c2)c(=O)c2ccccc12
845 s	Cc1csc(NC(=O)c2ccc(C(=O)Nc3nc(C)cs3)cc2)n1
738 s	Cc1c(Cl)cccc1S(=O)(=O)Nc1ccccc1N1CCNC(=O)C1
647 s	O=C(Nc1cccc(-c2ccc(N3CCCC3)nn2)c1)c1ccccc1F
559 s	O=C(C1CCCN(Cc2nc(-c3ccncc3)no2)C1)N1CCN(c2ncccn2)CC1 (stereo not given)
606 s	CC(=O)Nc1ccc(CCc2nc3ccc(C(=O)NCc4ccc(C)o4)cc3[nH]2)cc1
660 s	CCN1CCCC(C(=O)NCc2cccc(OC)c2OC)(c2ccccc2)CC1 (stereo not given)
655 s	COc1ccc2c(=O)c(C(=O)c3ccncc3)cn(CC(=O)NC3CCCCC3)c2c1
973 s	CCOc1cccc(-c2noc(Cn3ccn(Cc4ccc(Cl)cc4)c(=O)c3=O)n2)c1
1050 s	CCc1ccccc1NS(=O)(=O)c1ccc2c(c1)C(=O)N(CC)c1ncccc1O2
738 s	O=C(Cn1cnc2nc3c(cc2c1=O)CCCC3)Nc1cc(F)ccc1F
829 s	COC(=O)c1cnn(C(=O)c2ccc(OC)cc2)c1N
703 s	Cc1ccn2c(NC(=O)/C=C/c3ccccc3)c(-c3ccccc3)nc2c1
1020 s	Cc1ccc(S(=O)(=O)N2CCc3c(c(-c4nnc(-c5ccccc5)o4)nn3C)C2)cc1C
902 s	O=C(O)C1CCN(c2nc3ccc(-c4ccc(F)cc4)nc3s2)CC1
608 s	COCC(=O)NCc1nnnn1C1CCCCC1
808 s	CCCOc1ccc(C2NC(=O)NC(C)=C2C(=O)OCC(F)(F)F)cc1OC (stereo not given)
712 s	Cc1cnn(CCC(=O)N2CC(n3cc(COc4ccc(F)cc4)nn3)C2)c1
668 s	CC1CCN(C(=O)c2cc3c(s2)CCC(C(=O)NCc2ccccn2)C3)CC1 (stereo not given)

RP-LC retention time	SMILES
768 s	CCOC(=O)c1nc(NCc2ccc(OC)cc2OC)c2ccccc2n1
1090 s	Cc1csc(-c2csc(S(=O)(=O)N(C)Cc3ccccc3)c2)n1
640 s	Cc1ccc2c(=O)c3c([nH]c2c1C)CCN(CC(=O)Nc1cccc(Cl)c1)C3
1360 s	Cc1cc(C)c(S(=O)(=O)N2CCCC2c2nc(-c3ccc(Cl)cc3)no2)c(C)c1 (stereo not given)
823 s	CCN(CC)c1nc2ccsc2c(=O)n1CCC(=O)NCc1ccccc1F
676 s	CCOC(=O)C1CCC(CNC(=O)N2CCN(Cc3nc4ccccc4o3)CC2)CC1 (stereo not given)
828 s	CCCSCCCNC(=O)Cn1c(=O)c(C)nc2cc(C)c(C)cc21
998 s	CCN1C(=O)COc2ccc(-c3noc(-c4cccc5[nH]ccc45)n3)cc21
609 s	CSc1ccccc1NC(=O)c1ccc(-n2cccn2)nn1
896 s	Cn1c(=O)n(C)c2cc(S(=O)(=O)c3ccc(F)cc3)c(NC(=O)c3cccc(F)c3)cc21
750 s	COc1ccc(NC(=O)C2CCCN(C(=O)C3Sc4ccccc4NC3=O)C2)cc1 (stereo not given)
670 s	Cc1ccn2cc(C(=O)NC(C)c3ccc(F)cc3)nc2c1 (stereo not given)
714 s	Cc1ccc(NC(=O)CCC2CCN(c3cc(NC4CC4)ncn3)CC2)c(C)c1
882 s	CCC(CC)C(=O)Oc1coc(CSc2nc(C)cs2)cc1=O
770 s	CCCN1CCn2cc(S(=O)(=O)Nc3ccc(OC)c(Cl)c3)cc2C1=O
654 s	CC(=O)N(Cc1nn(C)c2c1CN(CC1=Cc3ccccc3OC1)CC2)c1ccccc1
686 s	Cn1cc(CCNC(=O)CSc2ccccc2)c2cccnc21
817 s	CCN(CC)CCNC(C(=O)OCCC(C)C)c1ccccc1 (stereo not given)
870 s	CCOC(=O)c1nc(Nc2cc(C)ccc2C)c2ccccc2n1
768 s	Cc1ccc(-c2noc(C3CC3)n2)cc1S(=O)(=O)N1CCC(C(=O)Nc2ncccc2C)CC1
760 s	Cc1cc(N2CCN(C(=O)Nc3cccc(C(F)(F)F)c3)CC2)nc(N2CCCC2)n1
